What was measured:
[1] = tested on: parasite seed; conditions: in vivo; cited from earlier work
[2] = tested on: rice d10 mutant; experiment: Rice micro tillering bioassay, d10 mutant; format: in vivo; conditions: 2.5 μM, hydroponic culture; untreated (Mock) 4 tillers per plant
Method: (§1) Rice seeds (WT, d3, d10) were surface-sterilized by washing with 70% ethanol for 1 min and then with 2.5% sodium hypochlorite for 15 min. Seeds were then rinsed thoroughly with sterile MilliQ water and incubated in water for 2 days at 30° C. in the dark. Pre-germinated seeds were transferred to filter papers containing ½ strength MS medium in 90 mm petri dishes and incubated at 30° C. under fluorescent white light (130-180 μM m^−2 s^−1) for one week. Seven day-old seedlings were transferred to 50 ml falcon tubes (one seedling per tube) containing modified half-strength Hoagland nutrient solution and grown in greenhouse. Plants were treated with MPs at 2.5 μM-2.5×10-7 μM, using GR24 as positive control. The compounds were applied six times, twice a week. Number of tillers per plant, plant height and fresh biomass were measured at final harvest.
Statistical analyses were carried out using statistical software package R (version 3.2.2). Dose-response curves and Half Maximum Effective Concentrations (EC50) were calculated to determine optimum amount of MPs. Synthetic strigolactone analog GR24 was used as reference to estimate efficacy of selected compounds. EC50 and estimated response were calculated using drc package (https://cran.r390 project.org/web/packages/drc/) with a Four Parameter Logistic Curve (Dose Response Curve) (Ritz and Streibig, 2005).

[3] = tested on: rice d3 mutant; experiment: Rice micro tillering bioassay, SL insensitive d3 mutant; format: in vivo; conditions: 2.5 μM, hydroponic culture
Method: as §1

[4] = tested on: rice leaf segments; experiment: Dark-induced leaf senescence of rice leaf segments; format: in vivo, O. sativa, var. Shiokari
Method: One week old rice (O. sativa, var. Shiokari) seedlings were established as mentioned above. Uniform seedlings were transferred to 50 ml tubes containing half strength Hoaglands nutrient solution for 7 days and grown in an incubator under white fluorescent light (130-180 μM m^−2 s^−1) with 16 h:8 h (L/D) at 28° C. for one week. Leaf segments of 2 cm were cut from middle part of third leaves of rice plants. Each segment was put in a well (in 24-well plates) containing 2 ml of 2.5 mM MES buffer with 0.05% Tween-20, and incubated at 30° C. in the dark for 7 days. After application of MPs, color change, chlorophyll content, ion leakage and gene expression were monitored daily for 7 days.

[5] = biological target: T1, ShHTL7 (Striga hermonthica, UniProt A0A0M3PNA2); experiment: Intrinsic tryptophan fluorescence assay; format: binding; conditions: ShHTL7 10 μM, mean±SE (n=3); read-out: Kd, affinity of ShHTL7
T1 sequence (A0A0M3PNA2 1-271): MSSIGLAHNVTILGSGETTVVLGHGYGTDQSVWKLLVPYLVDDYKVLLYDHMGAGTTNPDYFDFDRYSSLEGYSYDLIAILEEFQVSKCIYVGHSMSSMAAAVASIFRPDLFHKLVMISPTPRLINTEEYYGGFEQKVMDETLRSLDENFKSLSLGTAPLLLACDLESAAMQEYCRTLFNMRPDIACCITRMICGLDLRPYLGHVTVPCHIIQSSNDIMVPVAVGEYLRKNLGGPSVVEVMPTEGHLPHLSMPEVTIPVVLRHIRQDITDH
From the text: (§2) Striga hermonthica ShHTL7 cDNA, GenBank accession KR013127 was kindly provided by Prof. Tadao Asami (The University of Tokyo, Japan). Arabidopsis thaliana D14 (AtD14) cDNA, GenBank accession AY097402 was synthesized and cloned into pUC57 (GenScript). ShHTL7 and OsD14 cDNAs were amplified by RT-PCR using the primers shown in Table 2, digested with BamHI and XhoI, and ligated into BamHI/XhoI digested pGEX-6P-1 expression vector (GE Healthcare). Integrity of plasmids was confirmed by sequencing (KAUST Bioscience Core Lab). The plasmids were then transformed into E. coli BL21 (DE3) cells. The cells were grown in LB broth containing ampicillin ([…]), incubated at 37° C. until OD600 of 0.6 and induced with 0.1 mM isopropyl-β-D-thiogalactopyranoside (IPTG) at 16° C. for 16 h. Harvested cells were re-suspended in lysis buffer: 50 mM Tris-HCl (pH 8.0), 200 mM NaCl, 0.5% Tween-20 and 2 mM dithiothreitol (DTT). After sonication on ice for 10 mins, the lysate was centrifuged at 25,000 rpm for 30 min at 4° C. Supernatant was allowed to bind to glutathione-sepharose beads (GE Healthcare) for 2 h at 4° C., washed 3 times with buffer (50 mM Tris-HCl (pH 8.0), 200 mM NaCl, 2 mM DTT), and eluted by cleaving GST moiety with PreScission™ Protease (GE Healthcare) at 4° C. overnight. Eluted protein was further purified by gel filtration using HiLoad 16/60 Superdex200 prep grade column (GE Healthcare) on an AKTA prime system (GE Healthcare) in gel filtration buffer (10 mM HEPES pH 7.5, 50 mM KCl and 2 mM DTT). Protein eluted as a sharp single peak and purity was judged by 4-15% SDS-PAGE (Bio-Rad). Purified protein was concentrated using an Amicon 10K filter unit (Merck Millipore) and stored at −80° C. until use. Similar expression and purification protocol was followed for OsD14 protein, except that OsD14 was eluted from Glutathione resins using 0.2 mM reduced Glutathione (Sigma) without cutting GST tag.
ShHTL7 tryptophans were excited at 280 nm and […] emission intensity was measured at 333 nm. ShHTL7 (10 μM) was incubated at various dilutions (0.2, 0.4, 0.8, 1.6, 3.12, 6.25, 12.5, 25 and 50 μM) of GR24 and MPs for 30 minutes at room temperature before measurement. Each concentration point was measured in triplicates. Emitted fluorescence was monitored using spectraMaxi3 (Molecular Devices) plate reader in 96-wells black plates. Changes in tryptophan fluorescence intensity occur due to conformational changes in protein when it is bound to ligand; differences in fluorescence intensity were recorded and analyzed. Data were normalized and dissociation coefficient (Kd) values were calculated by fitting to a binding saturation single-site model with GraphPad (PRISM 6).

[6] = biological target: T2, OsD14 (Oryza sativa subsp. japonica, UniProt Q10QA5); experiment: YLG (Yoshimulactone Green) competitive hydrolysis assay; format: biochemical, rice; conditions: with SE (n=3); read-out: IC50, competitive inhibition of OsD14 mediated YLG hydrolysis
T2 construct: made in house; host or cells: E. coli BL21 (DE3)
T2 sequence (Q10QA5 1-318): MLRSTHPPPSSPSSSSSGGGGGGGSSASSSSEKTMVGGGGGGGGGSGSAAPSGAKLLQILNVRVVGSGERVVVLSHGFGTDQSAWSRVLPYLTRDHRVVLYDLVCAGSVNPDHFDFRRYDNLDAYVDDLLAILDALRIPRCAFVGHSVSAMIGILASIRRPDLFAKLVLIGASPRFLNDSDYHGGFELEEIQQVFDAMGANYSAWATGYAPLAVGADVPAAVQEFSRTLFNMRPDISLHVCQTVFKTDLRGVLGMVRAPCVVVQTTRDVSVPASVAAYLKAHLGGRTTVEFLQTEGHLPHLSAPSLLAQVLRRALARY
From the text: as §2
In vitro YLG hydrolysis assays were performed as described by Tsuchiya et al., 2015. Hydrolysis assays were carried out using 0.15 μM of recombinant protein OsD14 in a reaction buffer (100 mM PBS buffer, pH 7.3) with 0.1% dimethylsulfoxide (DMSO) at a 300 μl volume on a 96-well black plate (Thermo). For competitive assays, (±) GR24 and (±) MPs at range between 0.03 to 10 μM (or 100 μM) were co-incubated with 0.3 μM of YLG and reacted at 30° C. incubator for 15 min. Fluorescent intensity was measured with excitation at 485 nm and detected at 535 nm. IC50 values were calculated online (http://www.ic50.tk/index.html). Later, values were converted to the existing conditions when treated by 1.0 μM of recombinant proteins.

[7] = biological target: T1, ShHTL7; experiment: In vitro hydrolysis assay with ShHTL7 (HPLC); format: biochemical; conditions: 10 μM substrate, 37° C.
[8] = tested on: S. hermonthica; conditions: in vivo; cited from earlier work
[9] = tested on: P. ramosa; conditions: in vivo; cited from earlier work
[10] = tested on: Orobanche ramosa; conditions: tobacco field; cited from earlier work

CC1=CC(Oc2ccc(Br)cc2)OC1=O (stereo not shown) [4-Br debranone]
Activity in inducing parasite seed germination [1]: moderate activity in inducing seed germination

CC1=C[C@H](O/C=C2/C(=O)O[C@@H]3c4ccccc4C[C@H]23)OC1=O [GR24, reference compound]
Number of tillers per plant, d10 mutant [2]: 1 tiller per plant
High-tillering phenotype of d3 mutant (tillers per plant) [3]: neither MPs nor GR24 could restore the high-tillering phenotype
Transcript levels of Senescence Associated Genes Osl20 and Osl295 ([4]; after 5 days of treatment): striking increase in their transcripts
Change in leaf color, time relative to control ([4]; dark, leaf segments): about two days earlier than the control
Change in leaf color, day observed ([4]; dark, leaf segments monitored 7 days): already on the third day after treatment
Ion leakage compared to the control ([4]; first five days): did not detect a difference
Ion leakage compared to the control ([4]; sixth and seventh day): striking increase
Chlorophyll content ([4]; third day): clear reduction
Kd [5]: 0.44 ± 0.21 µM
IC50 [6]: 5.68 ± 0.183 µM
Hydrolysis rate by ShHTL7 [7]: followed by MP7, GR24

COC(=O)/C(=C/O[C@H]1C=C(C)C(=O)O1)N1C(=O)c2ccccc2C1=O [Nijmegen-1]
Activity in S. hermonthica seed germination [8]: weak germination response
EC50 relative to GR24, orders of magnitude higher [8]: 3 orders of magnitude
Induction of seed germination in P. ramosa [9]: potent inducer
Result of suicidal germination field trial [10]: very promising results
